Reference: patent US11827629B2, “CDGSH iron sulfur domain 2 activators and use thereof” (National Health Research Institutes, priority 2021, dated 2023)

These compounds were tested on Cisd2 promoter with firefly luciferase reporter (assay: Cisd2-luciferase reporter assay in HEK293-CISD2 cells). Details: Homo sapiens, 24 hours incubation, luciferase luminescence.
Assay type: cell-based
Protocol: A typical in vitro screening method includes the following steps: (i) obtaining an initial level of Cisd2 in a batch of human embryonic kidney cells 293 (HEK-293 cells) that express Cisd2, (ii) treating the batch of HEK-293 cells with a compound of this invention, and (iii) analyzing the level of Cisd2 after the treatment, thereby determining the potency of the compound as a Cisd2 activator.
Compounds 1-109 were tested for increasing the level of Cisd2 in human embryonic kidney cells 293 (HEK293), a transfected cell line expressing Cisd2, using the Cisd2-luciferase reporter assay as follows.
The transfected HEK293 cells stably expressed Cisd2 promoter with firefly luciferase reporter (HEK293-CISD2). They were kept in Dulbecco's modified Eagle's medium (DMEM) (Gibco, New York, NY, USA). Culture medium was supplemented with 10% heat-inactivated fetal bovine serum (FBS), 2 mM L-Glutamine, 1 mM sodium pyruvate, 0.1% MEM Non-Essential Amino Acids, 1 ug/ml puromycin and 1% penicillin/streptomycin (HyClone, Logan, UT, USA). The cells were maintained at 37° C. in an incubator (Thermo Fisher Scientific, New York, NY, USA) with an atmosphere of 5% CO2. The stably transfected cells were seeded in 384-well plates at a density of 3×10^3 cells/well. After incubation with tested compounds at 37° C. for 24 hours, ONE-Glo™ Luciferase Assay System (Promega, Madison, WI, USA) was added at room temperature for 5 minutes to detect any luciferase activity. Luminescence intensity was registered using plate reader Victor^2V (PerkinElmer, Boston, MA, USA).
EC50 values in this table are presented in three classes, i.e., A: <1 μM, B: 1 μM-5 μM, and C: 5 μM-10 μM.

O=C(CSc1nccs1)N1Cc2ccccc2C1 [Compound 1, 1-(1,3-dihydro-2H-isoindol-2-yl)-2-(1,3-thiazol-2-ylsulfanyl)ethanone] and O=C(CCSc1nccs1)N1Cc2ccccc2C1 [Compound 23, 1-(1,3-dihydro-2H-isoindol-2-yl)-3-(1,3-thiazol-2-ylsulfanyl)propan-1-one] cannot be ordered by EC50: under 1000 nM for the first, under 1000 nM for the second.

First: COc1ccc2c(c1)CN(C(=O)CSc1nccs1)C2 [Compound 2, 1-(5-methoxy-1,3-dihydro-2H-isoindol-2-yl)-2-(1,3-thiazol-2-ylsulfanyl)ethanone]
Second: O=C(CSc1nccs1)N1Cc2ccc(O)cc2C1 [Compound 3, 1-(5-hydroxy-1,3-dihydro-2H-isoindol-2-yl)-2-(1,3-thiazol-2-ylsulfanyl)ethanone]
The EC50 of the first is lower: under 1000 nM for the first, 1000 to 5000 nM for the second. The first is the more potent here.

O=C(CSc1nccs1)N1Cc2cccc(F)c2C1 [Compound 4, 1-(4-fluoro-1,3-dihydro-2H-isoindol-2-yl)-2-(1,3-thiazol-2-ylsulfanyl)ethanone] and O=C(CSc1nccs1)N1Cc2ccc(F)cc2C1 [Compound 5, 1-(5-fluoro-1,3-dihydro-2H-isoindol-2-yl)-2-(1,3-thiazol-2-ylsulfanyl)ethanone] cannot be ordered by EC50: under 1000 nM for the first, under 1000 nM for the second.

O=C(CSc1nccs1)N1Cc2cc(F)c(F)cc2C1 [Compound 6, 1-(5,6-difluoro-1,3-dihydro-2H-isoindol-2-yl)-2-(1,3-thiazol-2-ylsulfanyl)ethanone] and O=C(CSc1nccs1)N1Cc2cc(Cl)c(Cl)cc2C1 [Compound 8, 1-(5,6-dichloro-1,3-dihydro-2H-isoindol-2-yl)-2-(1,3-thiazol-2-ylsulfanyl)ethanone] fall in the same range of EC50: 1000 to 5000 nM for the first, 1000 to 5000 nM for the second.

Compared with O=C(CSc1nccs1)N1Cc2ccc(Cl)cc2C1 [Compound 7, 1-(5-chloro-1,3-dihydro-2H-isoindol-2-yl)-2-(1,3-thiazol-2-ylsulfanyl)ethanone], O=C(CSc1nccs1)N1Cc2ccc([N+](=O)[O-])cc2C1 [Compound 10, 1-(5-nitro-1,3-dihydro-2H-isoindol-2-yl)-2-(1,3-thiazol-2-ylsulfanyl)ethanone] is higher in EC50: under 1000 nM for the first, 1000 to 5000 nM for the second.

COC(=O)c1ccc2c(c1)CN(C(=O)CSc1nccs1)C2 [Compound 9, methyl 2-[(1,3-thiazol-2-ylsulfanyl)acetyl]-2,3-dihydro-1H-isoindole-5-carboxylate] and COC(=O)c1ccc2c(c1)CN(C(=O)CS(=O)(=O)c1nccs1)C2 [Compound 35, methyl 2-[(1,3-thiazol-2-ylsulfonyl)acetyl]-2,3-dihydro-1H-isoindole-5-carboxylate] cannot be ordered by EC50: under 1000 nM for the first, under 1000 nM for the second.

Cc1cnc(SCC(=O)N2Cc3ccccc3C2)s1 [Compound 11, 1-(1,3-dihydro-2H-isoindol-2-yl)-2-[(5-methyl-1,3-thiazol-2-yl)sulfanyl]ethanone] and Cc1cnc(SCC(=O)N2Cc3ccc(F)cc3C2)s1 [Compound 12, 1-(5-fluoro-1,3-dihydro-2H-isoindol-2-yl)-2-[(5-methyl-1,3-thiazol-2-yl)sulfanyl]ethanone] cannot be ordered by EC50: under 1000 nM for the first, under 1000 nM for the second.

Compared with O=C(CSc1ccccn1)N1Cc2ccccc2C1 [Compound 13, 1-(1,3-dihydro-2H-isoindol-2-yl)-2-(pyridin-2-ylsulfanyl)ethanone], O=C(NCCSc1ccccn1)N1Cc2ccccc2C1 [Compound 25, N-[2-(pyridin-2-ylsulfanyl)ethyl]-1,3-dihydro-2H-isoindole-2-carboxamide] is higher in EC50: under 1000 nM for the first, 1000 to 5000 nM for the second. The first is the more potent here.

First: COc1ccc2c(c1)CN(C(=O)CSc1ccccn1)C2 [Compound 14, 1-(5-methoxy-1,3-dihydro-2H-isoindol-2-yl)-2-(pyridin-2-ylsulfanyl)ethanone]
Second: Nc1ccc2c(c1)CN(C(=O)CSc1ccccn1)C2 [Compound 15, 1-(5-amino-1,3-dihydro-2H-isoindol-2-yl)-2-(pyridin-2-ylsulfanyl)ethanone]
The EC50 of the first is lower: under 1000 nM for the first, 1000 to 5000 nM for the second.

O=C(CSc1ccccn1)N1Cc2ccc(F)cc2C1 [Compound 16, 1-(5-fluoro-1,3-dihydro-2H-isoindol-2-yl)-2-(pyridin-2-ylsulfanyl)ethanone] and O=C(CCSc1ccccn1)N1Cc2ccc(F)cc2C1 [Compound 24, 1-(5-fluoro-1,3-dihydro-2H-isoindol-2-yl)-3-(pyridin-2-ylsulfanyl)propan-1-one] cannot be ordered by EC50: under 1000 nM for the first, under 1000 nM for the second.

Cc1cccc(SCC(=O)N2Cc3ccccc3C2)n1 [Compound 17, 1-(1,3-dihydro-2H-isoindol-2-yl)-2-[(6-methylpyridin-2-yl)sulfanyl]ethanone] and O=C(CSc1cccc(Cl)n1)N1Cc2ccccc2C1 [Compound 18, 2-[(6-chloropyridin-2-yl)sulfanyl]-1-(1,3-dihydro-2H-isoindol-2-yl)ethanone] fall in the same range of EC50: 1000 to 5000 nM for the first, 1000 to 5000 nM for the second.

Cc1nnc(SCC(=O)N2Cc3ccccc3C2)s1 [Compound 19, 1-(1,3-dihydro-2H-isoindol-2-yl)-2-[(5-methyl-1,3,4-thiadiazol-2-yl)sulfanyl]ethanone] and Nc1nnc(SCC(=O)N2Cc3ccccc3C2)s1 [Compound 20, 2-[(5-amino-1,3,4-thiadiazol-2-yl)sulfanyl]-1-(1,3-dihydro-2H-isoindol-2-yl)ethanone] fall in the same range of EC50: 1000 to 5000 nM for the first, 1000 to 5000 nM for the second.

O=C(CSc1ncc[nH]1)N1Cc2ccccc2C1 [Compound 21, 1-(1,3-dihydro-2H-isoindol-2-yl)-2-(1H-imidazol-2-ylsulfanyl)ethanone] and O=C(CSc1ncccn1)N1Cc2ccccc2C1 [Compound 22, 1-(1,3-dihydro-2H-isoindol-2-yl)-2-(pyrimidin-2-ylsulfanyl)ethanone] fall in the same range of EC50: 5000 to 10000 nM for the first, 5000 to 10000 nM for the second.

First: O=C(N1Cc2ccc(F)cc2C1)C(F)(F)Sc1ccccn1 [Compound 26, 2,2-difluoro-1-(5-fluoro-1,3-dihydro-2H-isoindol-2-yl)-2-(pyridin-2-ylsulfanyl)ethanone]
Second: O=C(N1Cc2ccccc2C1)C(F)(F)CSc1ccccn1 [Compound 27, 1-(1,3-dihydro-2H-isoindol-2-yl)-2,2-difluoro-3-(pyridin-2-ylsulfanyl)propan-1-one]
The EC50 of the first is lower: under 1000 nM for the first, 1000 to 5000 nM for the second.

COc1ccc2c(c1)CN(C(=O)CS(=O)(=O)c1nccs1)C2 [Compound 29, 1-(5-methoxy-1,3-dihydro-2H-isoindol-2-yl)-2-(1,3-thiazol-2-ylsulfonyl)ethanone] and O=C(CS(=O)(=O)c1nccs1)N1Cc2ccc(F)cc2C1 [Compound 31, 1-(5-fluoro-1,3-dihydro-2H-isoindol-2-yl)-2-(1,3-thiazol-2-ylsulfonyl)ethanone] cannot be ordered by EC50: under 1000 nM for the first, under 1000 nM for the second.

O=C(CS(=O)(=O)c1nccs1)N1Cc2cccc(F)c2C1 [Compound 30, 1-(4-fluoro-1,3-dihydro-2H-isoindol-2-yl)-2-(1,3-thiazol-2-ylsulfonyl)ethanone] and O=C(CS(=O)(=O)c1nccs1)N1Cc2ccc(Cl)cc2C1 [Compound 33, 1-(5-chloro-1,3-dihydro-2H-isoindol-2-yl)-2-(1,3-thiazol-2-ylsulfonyl)ethanone] cannot be ordered by EC50: under 1000 nM for the first, under 1000 nM for the second.

O=C(CS(=O)(=O)c1nccs1)N1Cc2cc(F)c(F)cc2C1 [Compound 32, 1-(5,6-difluoro-1,3-dihydro-2H-isoindol-2-yl)-2-(1,3-thiazol-2-ylsulfonyl)ethanone] and O=C(CS(=O)(=O)c1nccs1)N1Cc2cc(Cl)c(Cl)cc2C1 [Compound 34, 1-(5,6-dichloro-1,3-dihydro-2H-isoindol-2-yl)-2-(1,3-thiazol-2-ylsulfonyl)ethanone] cannot be ordered by EC50: under 1000 nM for the first, under 1000 nM for the second.

First: O=C(CS(=O)(=O)c1nccs1)N1Cc2ccc([N+](=O)[O-])cc2C1 [Compound 36, 1-(5-nitro-1,3-dihydro-2H-isoindol-2-yl)-2-(1,3-thiazol-2-ylsulfonyl)ethanone]
Second: Cc1cnc(S(=O)(=O)CC(=O)N2Cc3ccccc3C2)s1 [Compound 37, 1-(1,3-dihydro-2H-isoindol-2-yl)-2-[(5-methyl-1,3-thiazol-2-yl)sulfonyl]ethanone]
The EC50 of the first is lower: 1000 to 5000 nM for the first, 5000 to 10000 nM for the second.

O=C(CS(=O)(=O)c1ccccn1)N1Cc2ccccc2C1 [Compound 38, 1-(1,3-dihydro-2H-isoindol-2-yl)-2-(pyridin-2-ylsulfonyl)ethanone] and O=C(CS(=O)(=O)c1ccccn1)N1Cc2ccc(F)cc2C1 [Compound 40, 1-(5-fluoro-1,3-dihydro-2H-isoindol-2-yl)-2-(pyridin-2-ylsulfonyl)ethanone] cannot be ordered by EC50: under 1000 nM for the first, under 1000 nM for the second.

First: COc1ccc2c(c1)CN(C(=O)CS(=O)(=O)c1ccccn1)C2 [Compound 39, 1-(5-methoxy-1,3-dihydro-2H-isoindol-2-yl)-2-(pyridin-2-ylsulfonyl)ethanone]
Second: Cc1cccc(S(=O)(=O)CC(=O)N2Cc3ccccc3C2)n1 [Compound 41, 1-(1,3-dihydro-2H-isoindol-2-yl)-2-[(6-methylpyridin-2-yl)sulfonyl]ethanone]
The EC50 of the first is lower: under 1000 nM for the first, 1000 to 5000 nM for the second.

O=C(CS(=O)(=O)c1cccc(Cl)n1)N1Cc2ccccc2C1 [Compound 42, 2-[(6-chloropyridin-2-yl)sulfonyl]-1-(1,3-dihydro-2H-isoindol-2-yl)ethanone] and O=C(CS(=O)(=O)c1ncccn1)N1Cc2ccccc2C1 [Compound 43, 1-(1,3-dihydro-2H-isoindol-2-yl)-2-(pyrimidin-2-ylsulfonyl)ethanone] fall in the same range of EC50: 1000 to 5000 nM for the first, 1000 to 5000 nM for the second.
